Test results taken from patent publication US20240285634A1, “COMPOUND AND METHOD FOR TREATING CHEMOTHERAPY-ASSOCIATED GASTROINTESTINAL SIDE EFFECTS” (ONQUALITY PHARMACEUTICALS CHINA LTD., priority 2021, published 2024).

Legend:
[1] = system: Balb/c mice, diarrhea caused by continuous administration of a chemotherapeutic agent; assay: Relieving effect on diarrhea caused by the continuous administration of a chemotherapeutic agent (Examples 365-384); type: in vivo; conditions: for Relative remission rate (%): for 3 days, cycle 8 days
Description: Balb/c mice were fed for 1 week, and then divided into groups. The experiment was divided into a control group, a chemotherapeutic agent group, and a group of the compound as shown in Formula I, each of which comprised 10 mice, to perform the administration experiment, for which the administration dosage, mode, time and frequency were shown in Table 5. The control group: being injected or intragastrically administered with the same solvent as that used in the group of the compound as shown in Formula I (the administration mode and time were shown in Table 5), and then being injected or intragastrically administered with the same solvent as that used in the chemotherapeutic agent group (the administration mode was shown in Table 5); the chemotherapeutic agent group: being injected or intragastrically administered with the same solvent as that used in the group of the compound as shown in Formula I (the administration mode and time were shown in Table 5), and then being injected or intragastrically administered with the chemotherapeutic agent (the type, administration mode, time and dosage were shown in Table 5); the group of the compound as shown in Formula I: being injected or intragastrically administered with the compound as shown in Formula I (the administration mode and time were shown in Table 5), and then being administered with the chemotherapeutic agent (the type, administration mode, time and dosage were shown in Table 5).
(§1) The scoring of diarrhea can refer to the method of Akinobu Kurita (Cancer Chemother Pharmacol 2000; 46:211-20.), Grade 0): normal feces; Grade 1: mild diarrhea, the stools is slightly wet and soft; Grade 2: moderate diarrhea, loose stools and mild perianal contamination; Grade 3: severe diarrhea, watery stools and accompanied by severe perianal staining (see FIG. 1). It is regarded as effective remission when the diarrhea grading of mice in the group of the compound as shown in Formula I is reduced compared with the average diarrhea grading of mice in the chemotherapeutic agent group.
(§2) The diarrhea grading of mice was observed and recorded every day. At the end of the experiment, the number of mice in the group of the compound as shown in Formula I whose diarrhea grading was lower than that of mice in the chemotherapeutic agent group was recorded. Table 5 lists various animal experiment combinations of chemotherapeutic agents and the compound as shown in Formula I, as well as the corresponding experimental results. (Relative remission rate %=the number of mice in the group of the compound as shown in Formula I whose diarrhea has been effectively relieved/the total number of mice in the group of the compound as shown in Formula I*100%. The establishment rate of diarrhea model in the chemotherapeutic agent group was 50%-80%, that is, about 5-8 of 10 mice developed diarrhea during the experiment, and there were cases of individual mice death or not developing diarrhea.)

[2] = system: Chemotherapeutic agent-caused diarrhea models of Balb/c mice; assay: Relieving effect on diarrhea caused by a chemotherapeutic agent (Examples 1-201); type: in vivo; conditions: for diarrhea gradings compared with the chemotherapeutic agent group: administered before the chemotherapeutic agent, Table 3 and FIG. 2
Description: Construction of mouse animal models: Chemotherapeutic agent-caused diarrhea models of Balb/c mice were constructed according to the administration mode and frequency of the chemotherapeutic agent as shown in Table 3. After administration for several days, mice developed different extents of diarrhea symptoms (as shown in FIG. 1), which were similar to the conditions in human. Thus, chemotherapeutic agent-caused diarrhea models of mice are very good models to mimic diarrhea in human caused by the chemotherapeutic agent.
Balb/c mice were fed for 1 week, and then divided into groups. The experiment was divided into a control group, a chemotherapeutic agent group, and a group of the compound as shown in Formula I, each of which comprised 10 mice, to perform the administration experiment, for which the administration dosage, mode, time and frequency were shown in Table 3. The control group: being injected or intragastrically administered with the same solvent as that used in the group of the compound as shown in Formula I (the injection mode and time were shown in Table 3), and then being injected or intragastrically administered with the same solvent as that used in the chemotherapeutic agent group (the administration mode was shown in Table 3); the chemotherapeutic agent group: being injected or intragastrically administered with the same solvent as that used in the group of the compound as shown in Formula I (the administration mode and time were shown in Table 3), and then being injected or intragastrically administered with the chemotherapeutic agent (the type, administration mode and dosage were shown in Table 3); the group of the compound as shown in Formula I: being injected or intragastrically administered with the compound as shown in Formula I (the administration mode and time were shown in Table 3), and then being administered with the chemotherapeutic agent (the administration mode and dosage were shown in Table 3).
as §1, with “0:” for “0):”
as §2, with “3” for “5”, “50%-70%,” for “50%-80%,”, “5-7” for “5-8”

[3] = continuous administration of the chemotherapeutic agent for 7 days or less
[4] = continuous administration of the chemotherapeutic agent for less than 7 days

O=C1NCC2(CCCCC2)n2c1cc1cnc(Nc3ccc(N4CCC(N5CCOCC5)CC4)cn3)nc12 [Compound III]
Relative remission rate (%) ([1]; Example 382, Fluorouracil (5-Fu) intravenous injection 70 mg/kg once a day, compound subcutaneous injection 100 mg/kg once a day, 12 h before chemotherapeutic agent): 20%
relieving effects on diarrhea [1, 3]: have relieving effects
relieving effects on diarrhea [1, 4]: significant
Relative remission rate ([2]; Ex 89, Oxaliplatin 17.5 mg/kg intravenous single, compound 100 mg/kg intraperitoneal single 1 h before, cycle 8 days): 40%
Relative remission rate ([2]; Ex 90, Oxaliplatin 17.5 mg/kg intravenous single, compound 100 mg/kg intraperitoneal single 4 h before, cycle 8 days): 70%
Relative remission rate ([2]; Ex 91, Oxaliplatin 17.5 mg/kg intravenous single, compound 100 mg/kg intraperitoneal single 8 h before, cycle 8 days): 40%
Relative remission rate ([2]; Ex 178, Fluorouracil 50 + oxaliplatin 5 + irinotecan 50 + tetrahydrofolic acid 90 mg/kg intravenous single, compound 150 mg/kg oral single 0.5 h before, cycle 7 days): 30%
Relative remission rate ([2]; Ex 179, Fluorouracil 50 + oxaliplatin 5 + irinotecan 50 + tetrahydrofolic acid 90 mg/kg intravenous single, compound 150 mg/kg oral single 4 h before, cycle 7 days): 50%
Relative remission rate ([2]; Ex 180, Fluorouracil 50 + oxaliplatin 5 + irinotecan 50 + tetrahydrofolic acid 90 mg/kg intravenous single, compound 150 mg/kg oral single 8 h before, cycle 7 days): 40%
Relative remission rate ([2]; Ex 181, Fluorouracil 50 + oxaliplatin 5 + irinotecan 50 + tetrahydrofolic acid 90 mg/kg intravenous single, compound 150 mg/kg oral single 12 h before, cycle 7 days): 40%
Relative remission rate ([2]; Ex 182, Fluorouracil 50 + oxaliplatin 5 + irinotecan 50 + tetrahydrofolic acid 90 mg/kg intravenous single, compound 150 mg/kg oral single 24 h before, cycle 7 days): 20%
Relative remission rate ([2]; Ex 199, Etoposide 60 + carboplatin 5 mg/kg intraperitoneal single, compound 100 mg/kg oral single 0.5 h before, cycle 10 days): 60%
diarrhea gradings compared with the chemotherapeutic agent group [2]: relieved to different degrees

O=C1NCC2(CCCCC2)n2c1cc1cnc(Nc3ccc(N4CCNCC4)cn3)nc12 [Compound II]
Relative remission rate (%) ([1]; Example 381, Fluorouracil (5-Fu) intravenous injection 70 mg/kg once a day, compound intramuscular injection 100 mg/kg once a day, 0.5 h before chemotherapeutic agent): 40%
relieving effects on diarrhea [1, 3]: have relieving effects
relieving effects on diarrhea [1, 4]: significant
Relative remission rate ([2]; Ex 31, 5-Fu 125 mg/kg intraperitoneal single, compound 50 mg/kg intraperitoneal single 0.5 h before, cycle 10 days): 30%
Relative remission rate ([2]; Ex 32, 5-Fu 125 mg/kg intraperitoneal single, compound 100 mg/kg intraperitoneal single 4 h before, cycle 10 days): 60%
Relative remission rate ([2]; Ex 33, 5-Fu 125 mg/kg intraperitoneal single, compound 150 mg/kg intraperitoneal single 12 h before, cycle 10 days): 40%
Relative remission rate ([2]; Ex 173, Fluorouracil 50 + oxaliplatin 5 + irinotecan 50 + tetrahydrofolic acid 90 mg/kg intraperitoneal single, compound 100 mg/kg oral single 0.5 h before, cycle 7 days): 30%
Relative remission rate ([2]; Ex 174, Fluorouracil 50 + oxaliplatin 5 + irinotecan 50 + tetrahydrofolic acid 90 mg/kg intraperitoneal single, compound 100 mg/kg oral single 4 h before, cycle 7 days): 30%
Relative remission rate ([2]; Ex 175, Fluorouracil 50 + oxaliplatin 5 + irinotecan 50 + tetrahydrofolic acid 90 mg/kg intraperitoneal single, compound 100 mg/kg oral single 8 h before, cycle 7 days): 40%
Relative remission rate ([2]; Ex 176, Fluorouracil 50 + oxaliplatin 5 + irinotecan 50 + tetrahydrofolic acid 90 mg/kg intraperitoneal single, compound 100 mg/kg oral single 12 h before, cycle 7 days): 30%
Relative remission rate ([2]; Ex 177, Fluorouracil 50 + oxaliplatin 5 + irinotecan 50 + tetrahydrofolic acid 90 mg/kg intraperitoneal single, compound 100 mg/kg oral single 24 h before, cycle 7 days): 30%
Relative remission rate ([2]; Ex 197, Gemcitabine (GEM) 120 mg/kg intravenous single, compound 100 mg/kg oral single 24 h before, cycle 8 days): 40%
Relative remission rate ([2]; Ex 198, Etoposide 60 + carboplatin 5 mg/kg intraperitoneal single, compound 100 mg/kg oral single 2 h before, cycle 10 days): 50%
diarrhea gradings compared with the chemotherapeutic agent group [2]: relieved to different degrees

CC(C)N1CCN(c2ccc(Nc3ncc4cc5n(c4n3)C3(CCCCC3)CNC5=O)nc2)CC1 [Compound IV, Lerociclib]
Relative remission rate (%) ([1]; Example 380, Fluorouracil (5-Fu) intraperitoneal injection 70 mg/kg once a day, compound oral administration 100 mg/kg once a day, 4 h before chemotherapeutic agent): 30%
relieving effects on diarrhea [1, 3]: have relieving effects
relieving effects on diarrhea [1, 4]: significant
Relative remission rate ([2]; Ex 112, Irinotecan (CPT-11) 240 mg/kg intraperitoneal single, compound 100 mg/kg intraperitoneal single 0.5 h before, cycle 11 days): 60%
Relative remission rate ([2]; Ex 113, Irinotecan (CPT-11) 240 mg/kg intraperitoneal single, compound 100 mg/kg intraperitoneal single 4 h before, cycle 11 days): 50%
Relative remission rate ([2]; Ex 114, Irinotecan (CPT-11) 240 mg/kg intraperitoneal single, compound 100 mg/kg intraperitoneal single 8 h before, cycle 11 days): 30%
Relative remission rate ([2]; Ex 135, Fluorouracil 100 + irinotecan 200 mg/kg intraperitoneal single, compound 100 mg/kg oral single 0.5 h before, cycle 8 days): 30%
Relative remission rate ([2]; Ex 136, Fluorouracil 100 + irinotecan 200 mg/kg intraperitoneal single, compound 100 mg/kg oral single 12 h before, cycle 8 days): 50%
Relative remission rate ([2]; Ex 137, Fluorouracil 100 + irinotecan 200 mg/kg intraperitoneal single, compound 100 mg/kg oral single 24 h before, cycle 8 days): 40%
Relative remission rate ([2]; Ex 183, Fluorouracil 50 + oxaliplatin 5 + irinotecan 50 + tetrahydrofolic acid 90 mg/kg intravenous single, compound 100 mg/kg intraperitoneal single 0.5 h before, cycle 7 days): 80%
Relative remission rate ([2]; Ex 184, Fluorouracil 50 + oxaliplatin 5 + irinotecan 50 + tetrahydrofolic acid 90 mg/kg intravenous single, compound 100 mg/kg intraperitoneal single 4 h before, cycle 7 days): 60%
Relative remission rate ([2]; Ex 185, Fluorouracil 50 + oxaliplatin 5 + irinotecan 50 + tetrahydrofolic acid 90 mg/kg intravenous single, compound 100 mg/kg intraperitoneal single 8 h before, cycle 7 days): 50%
Relative remission rate ([2]; Ex 186, Fluorouracil 50 + oxaliplatin 5 + irinotecan 50 + tetrahydrofolic acid 90 mg/kg intravenous single, compound 100 mg/kg intraperitoneal single 12 h before, cycle 7 days): 50%
Relative remission rate ([2]; Ex 187, Fluorouracil 50 + oxaliplatin 5 + irinotecan 50 + tetrahydrofolic acid 90 mg/kg intravenous single, compound 100 mg/kg intraperitoneal single 24 h before, cycle 7 days): 40%
Relative remission rate ([2]; Ex 195, Topotecan 20 mg/kg intravenous single, compound 100 mg/kg oral single 0.5 h before, cycle 14 days): 60%
diarrhea gradings compared with the chemotherapeutic agent group [2]: relieved to different degrees
